Measured values from article PMC8500670, “A selective WDR5 degrader inhibits acute myeloid leukemia in patient-derived mouse models” (Science translational medicine, 2021).

Tests used:
Test in all cases: biochemical
[1] = target: T1, MAPKAP-K2 (Homo sapiens, UniProt P49137); set-up: kinase selectivity panel, single concentration, duplicate
T1 construct: gene MAPKAPK2
Description: (§1) We next assessed selectivity of MS67 against 22 protein methyltransferases (table S2) and a broad panel of common drug targets including 45 kinases (table S3) and 44 G protein–coupled receptors (GPCR), ion channels, and transporters (table S4). […] We subsequently determined that MS67 had moderate binding affinity (Ki = 1.0 ± 0.8 μM) to Sigma 2 receptor (fig. S10).

[2] = target: EphA3 (Homo sapiens, UniProt P29320); set-up: kinase selectivity panel, single concentration, duplicate
EphA3, sequence (P29320 whole entry): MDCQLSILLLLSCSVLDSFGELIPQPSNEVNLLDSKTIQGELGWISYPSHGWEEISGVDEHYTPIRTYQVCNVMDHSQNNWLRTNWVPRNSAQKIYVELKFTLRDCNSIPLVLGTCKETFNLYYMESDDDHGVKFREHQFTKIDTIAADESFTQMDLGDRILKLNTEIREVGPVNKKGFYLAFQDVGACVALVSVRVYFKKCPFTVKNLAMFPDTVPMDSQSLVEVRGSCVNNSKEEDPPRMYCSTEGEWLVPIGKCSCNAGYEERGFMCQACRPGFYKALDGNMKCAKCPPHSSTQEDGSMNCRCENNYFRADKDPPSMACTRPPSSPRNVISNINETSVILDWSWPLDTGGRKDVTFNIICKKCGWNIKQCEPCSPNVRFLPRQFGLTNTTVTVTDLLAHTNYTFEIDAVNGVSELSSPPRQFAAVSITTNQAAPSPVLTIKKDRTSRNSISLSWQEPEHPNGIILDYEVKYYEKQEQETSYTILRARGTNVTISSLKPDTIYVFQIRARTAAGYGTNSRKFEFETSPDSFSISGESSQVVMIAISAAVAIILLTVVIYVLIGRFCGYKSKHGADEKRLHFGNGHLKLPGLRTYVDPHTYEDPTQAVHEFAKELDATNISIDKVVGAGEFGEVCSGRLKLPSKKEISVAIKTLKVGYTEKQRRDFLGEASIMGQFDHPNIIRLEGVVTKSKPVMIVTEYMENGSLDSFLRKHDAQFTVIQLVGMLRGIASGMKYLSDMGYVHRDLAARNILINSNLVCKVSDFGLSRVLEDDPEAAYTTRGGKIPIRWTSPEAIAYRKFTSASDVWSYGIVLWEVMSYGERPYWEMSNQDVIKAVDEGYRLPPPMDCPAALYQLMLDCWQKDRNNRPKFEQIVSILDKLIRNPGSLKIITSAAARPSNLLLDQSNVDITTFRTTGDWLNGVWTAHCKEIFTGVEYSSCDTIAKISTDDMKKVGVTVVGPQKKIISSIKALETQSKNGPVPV
Description: as §1

[3] = target: IRAK4 (Homo sapiens, UniProt Q9NWZ3); set-up: kinase selectivity panel, single concentration, duplicate
IRAK4, sequence (Q9NWZ3 whole entry): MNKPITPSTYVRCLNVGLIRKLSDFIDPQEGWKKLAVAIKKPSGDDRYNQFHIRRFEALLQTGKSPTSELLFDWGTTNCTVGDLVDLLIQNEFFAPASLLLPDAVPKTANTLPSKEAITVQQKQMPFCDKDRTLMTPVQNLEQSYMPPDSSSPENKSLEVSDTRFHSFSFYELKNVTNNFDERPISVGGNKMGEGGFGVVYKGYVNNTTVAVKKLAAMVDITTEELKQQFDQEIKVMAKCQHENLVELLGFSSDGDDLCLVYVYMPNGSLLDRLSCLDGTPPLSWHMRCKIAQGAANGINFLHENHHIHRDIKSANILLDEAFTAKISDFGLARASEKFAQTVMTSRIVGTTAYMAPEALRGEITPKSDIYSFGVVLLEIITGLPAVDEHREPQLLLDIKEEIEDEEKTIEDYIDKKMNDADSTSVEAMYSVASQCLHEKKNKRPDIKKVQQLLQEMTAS
Description: as §1

[4] = target: FGFR3 (Homo sapiens, UniProt P22607); set-up: kinase selectivity panel, single concentration, duplicate
FGFR3, sequence (P22607 whole entry): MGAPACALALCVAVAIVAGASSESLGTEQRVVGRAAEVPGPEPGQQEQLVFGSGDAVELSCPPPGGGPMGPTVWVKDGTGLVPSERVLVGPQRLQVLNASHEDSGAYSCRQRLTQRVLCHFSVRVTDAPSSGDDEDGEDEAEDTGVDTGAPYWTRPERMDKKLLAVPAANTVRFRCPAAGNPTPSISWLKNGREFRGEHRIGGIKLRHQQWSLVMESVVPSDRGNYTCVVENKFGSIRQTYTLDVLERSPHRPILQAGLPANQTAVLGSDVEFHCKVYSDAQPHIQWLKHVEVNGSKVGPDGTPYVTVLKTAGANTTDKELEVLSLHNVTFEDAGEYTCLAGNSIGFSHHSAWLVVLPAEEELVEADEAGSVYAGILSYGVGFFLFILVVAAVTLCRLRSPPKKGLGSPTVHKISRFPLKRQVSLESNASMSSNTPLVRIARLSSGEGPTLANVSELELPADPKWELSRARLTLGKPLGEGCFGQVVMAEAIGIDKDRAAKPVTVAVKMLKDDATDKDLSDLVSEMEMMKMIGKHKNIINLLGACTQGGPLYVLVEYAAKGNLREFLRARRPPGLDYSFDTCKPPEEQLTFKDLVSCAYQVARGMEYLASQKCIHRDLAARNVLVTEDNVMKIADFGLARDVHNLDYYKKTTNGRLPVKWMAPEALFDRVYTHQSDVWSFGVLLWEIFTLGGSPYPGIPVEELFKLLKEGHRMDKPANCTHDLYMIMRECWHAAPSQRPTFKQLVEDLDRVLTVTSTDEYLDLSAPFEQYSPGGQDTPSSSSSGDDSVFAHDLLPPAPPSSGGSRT
Description: as §1

[5] = target: T2, IKKα (Homo sapiens, UniProt O15111); set-up: kinase selectivity panel, single concentration, duplicate
T2 construct: gene CHUK
Description: as §1

[6] = target: MARK1 (Homo sapiens, UniProt Q9P0L2); set-up: kinase selectivity panel, single concentration, duplicate
MARK1, sequence (Q9P0L2 whole entry): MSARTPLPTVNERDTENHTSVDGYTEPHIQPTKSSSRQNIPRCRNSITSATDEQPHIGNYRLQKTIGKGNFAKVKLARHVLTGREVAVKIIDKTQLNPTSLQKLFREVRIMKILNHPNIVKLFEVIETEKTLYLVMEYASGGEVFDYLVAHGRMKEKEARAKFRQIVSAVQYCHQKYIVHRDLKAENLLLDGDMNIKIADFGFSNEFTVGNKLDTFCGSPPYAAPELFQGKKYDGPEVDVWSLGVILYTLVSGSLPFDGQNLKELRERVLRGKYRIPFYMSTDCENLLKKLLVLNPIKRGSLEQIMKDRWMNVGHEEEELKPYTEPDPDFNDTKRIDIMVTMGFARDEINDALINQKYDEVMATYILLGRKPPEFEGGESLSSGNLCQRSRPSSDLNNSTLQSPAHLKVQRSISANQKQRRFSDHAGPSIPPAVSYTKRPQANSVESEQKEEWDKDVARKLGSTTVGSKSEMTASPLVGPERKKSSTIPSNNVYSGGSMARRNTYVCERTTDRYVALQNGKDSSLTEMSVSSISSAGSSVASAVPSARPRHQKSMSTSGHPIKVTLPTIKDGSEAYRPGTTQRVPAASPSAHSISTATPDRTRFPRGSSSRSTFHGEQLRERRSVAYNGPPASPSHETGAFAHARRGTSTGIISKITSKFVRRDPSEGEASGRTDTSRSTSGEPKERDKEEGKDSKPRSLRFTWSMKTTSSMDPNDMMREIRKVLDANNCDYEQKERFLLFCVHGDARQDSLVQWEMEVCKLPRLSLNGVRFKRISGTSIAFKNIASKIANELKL
Description: as §1

[7] = target: EphB4 (Homo sapiens, UniProt P54760); set-up: kinase selectivity panel, single concentration, duplicate
EphB4, sequence (P54760 whole entry): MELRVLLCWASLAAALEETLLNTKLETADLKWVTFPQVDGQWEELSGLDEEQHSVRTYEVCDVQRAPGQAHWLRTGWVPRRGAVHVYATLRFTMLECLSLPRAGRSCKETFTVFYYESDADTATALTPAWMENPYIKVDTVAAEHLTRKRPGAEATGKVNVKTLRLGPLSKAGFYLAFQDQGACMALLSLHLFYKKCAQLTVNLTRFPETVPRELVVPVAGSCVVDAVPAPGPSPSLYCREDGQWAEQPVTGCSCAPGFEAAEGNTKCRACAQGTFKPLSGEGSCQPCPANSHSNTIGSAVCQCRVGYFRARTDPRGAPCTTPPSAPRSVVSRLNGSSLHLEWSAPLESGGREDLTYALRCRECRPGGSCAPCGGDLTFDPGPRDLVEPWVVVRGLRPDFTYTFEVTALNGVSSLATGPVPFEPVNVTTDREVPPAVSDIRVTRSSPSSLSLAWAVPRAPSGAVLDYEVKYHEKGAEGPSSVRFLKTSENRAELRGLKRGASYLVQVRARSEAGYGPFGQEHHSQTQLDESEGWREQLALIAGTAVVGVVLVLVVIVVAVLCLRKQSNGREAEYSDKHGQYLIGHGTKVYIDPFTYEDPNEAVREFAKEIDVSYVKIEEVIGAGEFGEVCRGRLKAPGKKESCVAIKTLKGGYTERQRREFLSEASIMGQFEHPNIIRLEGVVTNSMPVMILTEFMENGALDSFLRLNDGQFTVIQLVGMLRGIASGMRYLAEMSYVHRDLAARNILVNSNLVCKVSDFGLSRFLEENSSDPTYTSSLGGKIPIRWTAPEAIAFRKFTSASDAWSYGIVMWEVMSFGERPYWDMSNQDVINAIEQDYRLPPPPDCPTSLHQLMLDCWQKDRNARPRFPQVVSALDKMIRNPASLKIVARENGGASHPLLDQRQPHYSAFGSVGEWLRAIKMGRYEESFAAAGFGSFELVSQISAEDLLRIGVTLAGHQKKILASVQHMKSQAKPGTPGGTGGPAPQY
Description: as §1

[8] = target: T3, PKCβII (Homo sapiens, UniProt P05771); set-up: kinase selectivity panel, single concentration, duplicate
T3 construct: gene PRKCB; isoform beta II
T3 sequence (P05771 whole entry, canonical isoform): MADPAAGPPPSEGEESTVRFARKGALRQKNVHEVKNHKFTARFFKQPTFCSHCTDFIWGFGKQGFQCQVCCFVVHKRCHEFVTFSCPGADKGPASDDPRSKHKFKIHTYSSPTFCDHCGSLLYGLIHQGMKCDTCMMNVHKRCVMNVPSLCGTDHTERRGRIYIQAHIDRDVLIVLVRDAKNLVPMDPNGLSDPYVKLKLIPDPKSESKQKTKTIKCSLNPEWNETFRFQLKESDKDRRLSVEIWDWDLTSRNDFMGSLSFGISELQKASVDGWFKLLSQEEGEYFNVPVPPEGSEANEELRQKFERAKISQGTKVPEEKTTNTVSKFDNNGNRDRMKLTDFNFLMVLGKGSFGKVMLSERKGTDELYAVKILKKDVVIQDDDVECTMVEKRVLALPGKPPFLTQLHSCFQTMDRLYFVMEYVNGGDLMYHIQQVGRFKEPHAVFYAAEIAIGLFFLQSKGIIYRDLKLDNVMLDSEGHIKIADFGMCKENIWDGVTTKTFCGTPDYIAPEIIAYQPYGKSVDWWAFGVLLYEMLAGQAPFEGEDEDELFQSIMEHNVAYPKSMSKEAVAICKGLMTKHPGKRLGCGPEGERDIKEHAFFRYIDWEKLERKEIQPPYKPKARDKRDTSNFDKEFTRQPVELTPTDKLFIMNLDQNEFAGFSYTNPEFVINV
Description: as §1

[9] = target: T4, PRMT4 (Homo sapiens, UniProt Q86X55); set-up: protein methyltransferase inhibition panel, single concentration, duplicate
T4 construct: gene CARM1
T4 sequence (Q86X55 1-608): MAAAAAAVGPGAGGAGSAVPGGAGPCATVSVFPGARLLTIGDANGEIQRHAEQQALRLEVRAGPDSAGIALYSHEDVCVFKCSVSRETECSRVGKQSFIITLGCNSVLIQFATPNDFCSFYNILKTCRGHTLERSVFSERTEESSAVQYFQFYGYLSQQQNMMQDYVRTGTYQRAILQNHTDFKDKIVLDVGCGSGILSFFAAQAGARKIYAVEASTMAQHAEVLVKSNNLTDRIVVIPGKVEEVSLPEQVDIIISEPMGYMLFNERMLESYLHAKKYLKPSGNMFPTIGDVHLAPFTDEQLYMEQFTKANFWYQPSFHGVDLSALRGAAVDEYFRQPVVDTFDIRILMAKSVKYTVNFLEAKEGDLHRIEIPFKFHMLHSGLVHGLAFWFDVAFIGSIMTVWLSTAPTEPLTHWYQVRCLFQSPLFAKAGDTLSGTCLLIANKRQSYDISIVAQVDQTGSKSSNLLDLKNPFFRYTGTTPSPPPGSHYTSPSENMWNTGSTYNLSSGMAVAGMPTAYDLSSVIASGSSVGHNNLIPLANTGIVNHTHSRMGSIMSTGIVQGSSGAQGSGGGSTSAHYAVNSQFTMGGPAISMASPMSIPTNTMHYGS
Description: as §1

[10] = target: T5, SET7/9 (Homo sapiens, UniProt Q8WTS6); set-up: protein methyltransferase inhibition panel, single concentration, duplicate
T5 construct: gene SETD7
T5 sequence (Q8WTS6 1-366): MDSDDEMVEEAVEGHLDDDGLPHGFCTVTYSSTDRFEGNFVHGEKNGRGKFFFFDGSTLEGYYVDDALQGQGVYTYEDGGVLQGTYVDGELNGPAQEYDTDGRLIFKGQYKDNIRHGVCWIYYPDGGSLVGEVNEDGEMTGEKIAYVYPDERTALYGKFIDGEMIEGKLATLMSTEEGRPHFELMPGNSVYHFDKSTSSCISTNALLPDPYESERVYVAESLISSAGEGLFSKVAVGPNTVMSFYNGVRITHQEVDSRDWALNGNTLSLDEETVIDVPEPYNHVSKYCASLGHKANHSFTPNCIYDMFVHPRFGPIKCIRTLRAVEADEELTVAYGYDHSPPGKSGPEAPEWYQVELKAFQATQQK
Description: as §1

[11] = target: NSD1 (Homo sapiens, UniProt Q96L73); set-up: protein methyltransferase inhibition panel, single concentration, duplicate
Description: as §1

[12] = target: T6, SET8 (Homo sapiens, UniProt Q9NQR1); set-up: protein methyltransferase inhibition panel, single concentration, duplicate
T6 construct: gene KMT5A
T6 sequence (Q9NQR1 1-393): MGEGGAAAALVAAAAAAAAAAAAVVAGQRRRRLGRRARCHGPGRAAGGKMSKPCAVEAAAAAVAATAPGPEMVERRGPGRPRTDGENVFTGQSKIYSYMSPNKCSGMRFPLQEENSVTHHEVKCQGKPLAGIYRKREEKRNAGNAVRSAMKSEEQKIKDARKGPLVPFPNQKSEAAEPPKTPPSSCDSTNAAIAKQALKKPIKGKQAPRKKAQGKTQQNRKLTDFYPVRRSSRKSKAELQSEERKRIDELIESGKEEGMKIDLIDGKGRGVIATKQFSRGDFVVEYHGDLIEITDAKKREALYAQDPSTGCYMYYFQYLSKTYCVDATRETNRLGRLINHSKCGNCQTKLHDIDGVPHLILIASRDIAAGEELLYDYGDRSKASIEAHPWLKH
Description: as §1

[13] = target: T7, SUV39H1 (Homo sapiens, UniProt O43463); set-up: protein methyltransferase inhibition panel, single concentration, duplicate
T7 sequence (O43463 1-412): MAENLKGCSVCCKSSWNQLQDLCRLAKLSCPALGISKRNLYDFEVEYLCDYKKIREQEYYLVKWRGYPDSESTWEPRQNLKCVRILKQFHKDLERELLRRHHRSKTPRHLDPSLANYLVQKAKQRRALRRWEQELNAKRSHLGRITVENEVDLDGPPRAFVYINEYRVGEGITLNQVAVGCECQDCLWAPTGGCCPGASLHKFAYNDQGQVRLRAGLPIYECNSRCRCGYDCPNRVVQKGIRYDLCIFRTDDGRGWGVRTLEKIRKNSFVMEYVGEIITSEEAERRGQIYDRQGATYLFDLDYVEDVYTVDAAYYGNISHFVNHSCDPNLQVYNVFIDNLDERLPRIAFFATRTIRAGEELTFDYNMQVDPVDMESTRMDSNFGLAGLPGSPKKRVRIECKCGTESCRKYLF
Description: as §1

Cc1ncsc1-c1ccc([C@H](C)NC(=O)[C@@H]2C[C@@H](O)CN2C(=O)[C@@H](NC(=O)CNC(=O)c2ccc(F)c(-c3ccc(N4C[C@@H](C)N(C)[C@@H](C)C4)c(NC(=O)c4c[nH]c(=O)cc4C(F)(F)F)c3)c2)C(C)(C)C)cc1 [MS67]
< 10%: inhibition at 1 µM [1] | inhibition at 1 µM [2] | inhibition at 1 µM [3] | inhibition at 1 µM [4] | inhibition at 1 µM [5] | inhibition at 1 µM [6] | inhibition at 1 µM [7] | inhibition at 1 µM [8] | inhibition at 10 µM [9] | inhibition at 10 µM [10] | inhibition at 10 µM [11] | inhibition at 10 µM [12] | inhibition at 10 µM [13]
